Test results: patent US20230287003A1, “BCL6 INHIBITORS” (Cancer Research Technology Limited, priority 2018, published 2023)

Tests used:
[1] = biological target: human BCL6 BTB domain (Trx-6×His-BCL6) / BCOR-AF633 peptide (Homo sapiens (Human), UniProt P41182); test: HTRF assay; assay type: binding; conditions: 1 nM Trx-6×His-BCL6, 300 nM BCOR-AF633 peptide, 2 hours incubation
Method: The % inhibition at each concentration was calculated by normalising FRET ratio to the appropriate high (DMSO with all reagents) and low (DMSO without BCL6) controls.

[2] = biological target: BCL6-NCOR2(SMRT) corepressor protein-protein interaction (Homo sapiens (Human), UniProt P41182); test: NanoBRET cell assay; assay type: cell-based; conditions: read-out: NanoBRET cell avg pIC50 (converted)
Description: At 20 hr post-transfection, cells were collected, washed with PBS, and exchanged into media containing phenol red-free OptiMEM+4% FBS (Life Technology).

[3] = biological target: endogenous BCL6 protein in SUDHL-4 cells (Homo sapiens (Human), UniProt P41182); test: Immunofluorescence-based BCL6 degradation assay (SUDHL4); assay type: cell-based; conditions: 2 hours with compound, DC50 = concentration at which 50% of endogenous BCL6 protein is degraded
Method: DC50 values (compound concentration at which 50% of endogenous BCL6 protein is degraded) were determined in SUDHL-4 cells (American Type Culture Collection) in an immunofluorescence-based assay using an InCell2200 high content imaging system (GE Healthcare). Briefly, 40 μL of lymphoma suspension cells cultured in RPMI 1640-10% FBS (Sigma-Aldrich or PAN Biotech UK Ltd) were platted on fibronectin (Sigma catalogue F1141)-coated 384 well Cell Carrier Ultra plate (Perkin Elmer catalogue 6057300) at 1.2 104 cells/well. After 20 hours cell culture at 37° C./CO2 incubator, compounds were dispensed in the cell culture plate using ECHO550 acoustic dispenser (Labcyte, Inc.), as 8 point-concentration response (ranging from 5 nM to 10 μM) in 0.67% final DMSO concentration. Cells were incubated with compound for 2 hours at 37° C./CO2 incubator followed by fixation in 4.5% formaldehyde (37% formaldehyde solution, Sigma catalogue F8775) at room temperature for 15 min. After fixing, cells were washed in 1×TBS (Tris Buffer Saline) using a Power Washer 384 (Tecan Group Ltd). Blocking and cell permeabilisation were performed by incubating the fixed cells for 1 hour at room temperature in 1×TBS, 5% BSA, 1% Triton X100, followed by three washes on PW384 plate washer. Primary and secondary antibodies were prepared in 1×TBS, 1% BSA, 0.2% Triton X100. BCL6 expression was detected by incubating the cells for 1 h 30 with BCL6 rabbit polyclonal antibody (Sigma Catalogue HPA004899) at 1:250, 0.8 μg/ml, followed by 1 hour in chicken anti-Rabbit Alexa 488 conjugated antibody (Life Technology) at 1:500. After incubation in each antibody, cells were washes four times in 1×TBS-0.05% tween on PW384 plate washer. Cells were finally incubated for 60 min with nuclear staining RedDot2 dye (Biotium) at 0.5× the stock concentration in 1×TBS. BCL6 expression in the absence or presence of compound was detected on InCell2200 with 20× objective and quantified on InCell Analyser 3.7.2 workstation (GE Healthcare). The % response at each concentration was calculated by normalising BCL6 expression in the presence of compound to the appropriate high (DMSO) and low (DMSO with 7 μM of a control compound (5-((5-chloro-2-((3R,5S)-4,4-difluoro-3,5-dimethylpiperidin-1-yl)pyrimidin-4-yl)amino)-3-(3-hydroxy-3-methylbutyl)-1-methyl-1,3-dihydro-2H-benzo[d]imidazol-2-one)) controls.

## C[C@@H]1CN(c2ncc(Cl)c(Nc3ccc4c(c3)c3c(c(=O)n4C)OCC[C@H](C)N3)n2)C[C@H](C)C1(F)F [Example 5f, (S)-10-((5-chloro-2-((3S,5R)-4,4-difluoro-3,5-dimethylpiperidin-1-yl)pyrimidin-4-yl)amino)-2,7-dimethyl-1,2,3,4-tetrahydro-[1,4]oxazepino[2,3-c]quinolin-6(7H)-one]
[1]
  HTRF avg pIC50 (1 nM): 6.07
[2]
  IC50: 6.17 µM
[3]
  SUDHL4 avg pDC50: 6.63

## C[C@@H]1C[C@H](C)CN(c2ncc(Cl)c(Nc3ccc4c(c3)c3c(c(=O)n4C)OCC[C@H](C)N3)n2)C1 [Example 5e, (S)-10-((5-chloro-2-((3R,5S)-3,5-dimethylpiperidin-1-yl)pyrimidin-4-yl)amino)-2,7-dimethyl-1,2,3,4-tetrahydro-[1,4]oxazepino[2,3-c]quinolin-6(7H)-one]
[1]
  HTRF avg pIC50 (1 nM): 6.18
[2]
  IC50: 5.25 µM
[3]
  SUDHL4 avg pDC50: 6.22

## C[C@@H]1CN(c2ncc(Cl)c(Nc3ccc4c(c3)c3c(c(=O)n4C)C(=O)OC[C@H](C)N3)n2)C[C@H](C)C1(F)F [Example 8c, (S)-10-((5-chloro-2-((3S,5R)-4,4-difluoro-3,5-dimethylpiperidin-1-yl)pyrimidin-4-yl)amino)-2,7-dimethyl-2,3-dihydro-[1,4]oxazepino[6,5-c]quinoline-5,6(1H,7H)-dione]
[1]
  HTRF avg pIC50 (1 nM): 6.80
[2]
  IC50: 17.8 µM
[3]
  SUDHL4 avg pDC50: 6.78

## C[C@@H]1C[C@H](C)CN(c2ncc(Cl)c(Nc3ccc4c(c3)c3c(c(=O)n4C)C(=O)OC[C@H](C)N3)n2)C1 [Example 8g, (S)-10-((5-chloro-2-((3R,5S)-3,5-dimethylpiperidin-1-yl)pyrimidin-4-yl)amino)-2,7-dimethyl-2,3-dihydro-[1,4]oxazepino[6,5-c]quinoline-5,6(1H,7H)-dione]
[1]
  HTRF avg pIC50 (1 nM): 6.55
[2]
  IC50: 13.5 µM
[3]
  SUDHL4 avg pDC50: 6.50
